This is an account of results in publication PMC6818106, “Synthesis of thiazolidin-4-ones and thiazinan-4-ones from 1-(2-aminoethyl)pyrrolidine as acetylcholinesterase inhibitors” (Journal of Enzyme Inhibition and Medicinal Chemistry, 2019).

Data set [1] deals with T1, AChE (Rattus norvegicus, UniProt P37136).
T1 construct: the use of crude homogenised from rat’s brain structures, as used in the present work; from tissue; host or cells: Wistar rat cerebral cortex, homogenate supernatant
The data set can be described thus: In vitro AChE activity (Ellman method) in hippocampus homogenate. In kind it is biochemical. Particulars: for IC50: rat hippocampus homogenate, calculated with GraphPad Prism 5, read-out: IC50 of AChE inhibition, Hippocampus; for concentration from which AChE activity was inhibited, hippocampus: vs control group (water and methanol), p < .05, tested 0.1-250 μM. As to the method:
(§1) In vitro was evaluated the potential inhibition of thiazolidin-4-ones and thiazinan-4-ones against AChE activity enzyme in hippocampus and cerebral cortex of Wistar rats (60 days, 250–300 g), since it is well described that these two structures in the brain play an important role in memory. All procedures involving the animals were approved by the Committee of Ethics in Animal Experimentation of UFPel (CEEA 9219). The animals were submitted to euthanasia and the brain was removed. Subsequently, the hippocampus and cerebral cortex were separated and homogenised in buffer Tris HCl 10 mM (pH 7.4). The homogenates were centrifuged at 1800 rpm for 10 min and the supernatant was used for in vitro analyses of the potential inhibitory effect of thiazolidin-4-one and thiazinan-4-ones on AChE activity.
(§2) The compounds were solubilised in methanol and prepared in different concentrations (0.1, 0.5, 1, 5, 10, 25, 50, 100 and 250 μM). […] The thiocholine, in turn, reacts with DTNB to form a chromophore, 5-thio-2-nitrobenzoic, which is quantified spectrophotometrically at 412 nm. The enzymatic activity was expressed in μmols of AcSCh/h/mg protein. Proteins were determined by the method of Bradford[29] using the Coomassie Blue reagent. Bovine albumin was used as standard.

Data set [2] has as its target T1, AChE. The data set can be described thus: In vitro AChE activity (Ellman method) in cerebral cortex homogenate. In kind it is biochemical. Particulars: for IC50: rat cerebral cortex homogenate, calculated with GraphPad Prism 5, read-out: IC50 of AChE inhibition, Cortex; for concentration from which AChE activity was inhibited, cerebral cortex: vs control group (water and methanol), p < .05, tested 0.1-250 μM. As to the method: as §1, §2

The test system of a further data set is cortical astrocytes. As to the kind of experiment: Cytotoxicity in cortical astrocyte primary culture (MTT cell viability). In kind it is cell-based. The note with it: 100 μM, 48 h and 72 h; p > .05. As for the experimental part: In the evaluation of the cytotoxicity of the thiazolidin-4-ones and thiazinan-4-ones in astrocytes, Wistar rats (1–2 days) were used to obtain cortical astrocytes, which were cultured in 96-well plates (3x10^4 per well) and maintained with Dulbecco’s modified Eagle’s medium (DMEM) supplemented with 10% Bovine Foetal Serum (FBS)[30]. Cells were maintained under standard conditions (5% CO2, 37 °C and humidified atmosphere) for 15 days, receiving periodic exchange of culture medium until treatments were received. After time and maturation, the astrocytes were treated with the compounds at the concentration of 100 μM. Cells were exposed to this concentration for 48 h and 72 h. After treatment, cell viability was analysed by the test of 3-(4,5-dimethylthiazol-2yl)-2,5-diphenyltetrazolium bromide (MTT). This method consists of measuring the number of cells with the metabolically active mitochondria, based on the reduction of the tetrazolium salt to the formazan crystals. The absorbance was determined on a microplate reader at 492 nm. The absorbance is linearly proportional to the number of cells with active mitochondria, indicating how many viable cells remained at the end of the treatment.

T1 sequence (P37136 32-614): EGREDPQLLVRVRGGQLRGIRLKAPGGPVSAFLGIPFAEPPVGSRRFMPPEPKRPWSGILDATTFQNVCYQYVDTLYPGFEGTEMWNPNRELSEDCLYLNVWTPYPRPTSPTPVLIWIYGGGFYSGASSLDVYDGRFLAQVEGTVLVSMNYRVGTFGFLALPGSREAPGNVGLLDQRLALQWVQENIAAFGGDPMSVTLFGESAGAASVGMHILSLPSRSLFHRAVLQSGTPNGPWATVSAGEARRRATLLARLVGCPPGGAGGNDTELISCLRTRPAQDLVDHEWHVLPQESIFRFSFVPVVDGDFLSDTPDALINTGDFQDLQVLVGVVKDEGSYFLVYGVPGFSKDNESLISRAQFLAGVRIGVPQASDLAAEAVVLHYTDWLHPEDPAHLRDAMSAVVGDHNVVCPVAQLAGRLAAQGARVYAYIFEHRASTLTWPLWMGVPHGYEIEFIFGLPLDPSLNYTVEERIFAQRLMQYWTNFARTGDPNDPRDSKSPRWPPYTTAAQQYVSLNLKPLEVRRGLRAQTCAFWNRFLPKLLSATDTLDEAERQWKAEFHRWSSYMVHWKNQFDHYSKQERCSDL

Regarding “2-(2-methoxyphenyl)-3-(2-(pyrrolidin-1-yl)ethyl)-1,3-thiazinan-4-one [6l]”, at AChE [1], the IC50 (usually the midpoint of a concentration-inhibition curve) was 84.9 µM and the “concentration from which AChE activity was inhibited, hippocampus” value is no less than 100 µM. Further, at AChE [2], the IC50 is greater than 250 µM and the “concentration from which AChE activity was inhibited, cerebral cortex” value was no less than 100 µM.

In the case of `O=C1CSC(c2ccccc2)N1CCN1CCCC1` (centres unmarked) [5a, 2-phenyl-3-(2-(pyrrolidin-1-yl)ethyl)thiazolidin-4-one], the IC50 on AChE [1] is 30.9 µM; at AChE [2], greater than 250 µM.

For the compound `O=C1CSC(c2ccc(Cl)cc2)N1CCN1CCCC1` (centres unmarked) [5g, 2-(4-chlorophenyl)-3-(2-(pyrrolidin-1-yl)ethyl)thiazolidin-4-one], the IC50 on AChE [1] and on AChE [2] was greater than 250 µM in each case.

As for `O=C1CSC(c2ccccc2[N+](=O)[O-])N1CCN1CCCC1` (centres unmarked) [5h, 2-(2-nitrophenyl)-3-(2-(pyrrolidin-1-yl)ethyl)thiazolidin-4-one], the IC50 at AChE [1] was 105 µM; at AChE [2], greater than 250 µM.

Take `O=C1CSC(c2cccc([N+](=O)[O-])c2)N1CCN1CCCC1` (centres unmarked) [5i, 2-(3-nitrophenyl)-3-(2-(pyrrolidin-1-yl)ethyl)thiazolidin-4-one]: on AChE [1], the IC50 is 81.6 µM and the “concentration from which AChE activity was inhibited, hippocampus” value is no less than 10 µM. At AChE [2], the IC50 was 10.2 µM and the “concentration from which AChE activity was inhibited, cerebral cortex” value was no less than 10 µM.

On to `O=C1CSC(c2ccc([N+](=O)[O-])cc2)N1CCN1CCCC1` (centres unmarked) [5j, 2-(4-nitrophenyl)-3-(2-(pyrrolidin-1-yl)ethyl)thiazolidin-4-one], for which, at AChE [1], the IC50 was 8.68 µM and the “concentration from which AChE activity was inhibited, hippocampus” value was no less than 1 µM. Besides, on AChE [2], the IC50 is 28.1 µM and the “concentration from which AChE activity was inhibited, cerebral cortex” value was no less than 1 µM. Further, the “cell viability of astrocyte primary culture (MTT)” value (shortened to “cell viability”) in the data set with cortical astrocytes was “did not change de cell viability”.

In the case of `Cc1ccc(C2SCC(=O)N2CCN2CCCC2)cc1` (centres unmarked) [5k, 3-(2-(pyrrolidin-1-yl)ethyl)-2-p-tolylthiazolidin-4-one], the IC50 at AChE [1] and at AChE [2] was greater than 250 µM in each case.

For the compound `COc1ccc(C2SCC(=O)N2CCN2CCCC2)cc1` (centres unmarked) [5n, 2-(4-methoxyphenyl)-3-(2-(pyrrolidin-1-yl)ethyl)thiazolidin-4-one], the IC50 at AChE [1] and at AChE [2] was greater than 250 µM in each case.

In the case of `O=C1CSC(c2cccc(O)c2)N1CCN1CCCC1` (centres unmarked) [5o, 2-(3-hydroxyphenyl)-3-(2-(pyrrolidin-1-yl)ethyl)thiazolidin-4-one], the IC50 at AChE [1] was 30.6 µM; at AChE [2], 27.6 µM.

As to `O=C1CCSC(c2ccccc2)N1CCN1CCCC1` (centres unmarked) [6a, 2-phenyl-3-(2-(pyrrolidin-1-yl)ethyl)-1,3-thiazinan-4-one], at AChE [1], the IC50 was 5.2 µM and the “concentration from which AChE activity was inhibited, hippocampus” value is no less than 1 µM. For the same compound, at AChE [2], the 50% inhibitory concentration (IC50) is 7.4 µM and the “concentration from which AChE activity was inhibited, cerebral cortex” value was no less than 5 µM. Moreover, the “cell viability” value with cortical astrocytes was “did not change de cell viability”.

Take `O=C1CCSC(c2ccc(Cl)cc2)N1CCN1CCCC1` (centres unmarked) [6g, 2-(4-chlorophenyl)-3-(2-(pyrrolidin-1-yl)ethyl)-1,3-thiazinan-4-one]: the IC50 is 50.5 µM on AChE [1] and 57.2 µM at AChE [2].

For the compound `O=C1CCSC(c2ccccc2[N+](=O)[O-])N1CCN1CCCC1` (centres unmarked) [6h, 2-(2-nitrophenyl)-3-(2-(pyrrolidin-1-yl)ethyl)-1,3-thiazinan-4-one], at AChE [1], the IC50 was 92.8 µM and the “concentration from which AChE activity was inhibited, hippocampus” value turned out to be 5 µM. Moreover, on AChE [2], the IC50 was 11 µM and the “concentration from which AChE activity was inhibited, cerebral cortex” value was no less than 1 µM. Moreover, the “cell viability” value in the data set with cortical astrocytes is on record as “did not change de cell viability”.

As to `O=C1CCSC(c2cccc([N+](=O)[O-])c2)N1CCN1CCCC1` (centres unmarked) [6i, 2-(3-nitrophenyl)-3-(2-(pyrrolidin-1-yl)ethyl)-1,3-thiazinan-4-one], at AChE [1], the IC50 was 29.4 µM and the “concentration from which AChE activity was inhibited, hippocampus” value was no less than 50 µM. On AChE [2], the IC50 was 50.6 µM and the “concentration from which AChE activity was inhibited, cerebral cortex” value is no less than 50 µM.

For the compound `O=C1CCSC(c2ccc([N+](=O)[O-])cc2)N1CCN1CCCC1` (centres unmarked) [6j, 2-(4-nitrophenyl)-3-(2-(pyrrolidin-1-yl)ethyl)-1,3-thiazinan-4-one], at AChE [1], the IC50 is 9.32 µM and the “concentration from which AChE activity was inhibited, hippocampus” value was no less than 1 µM. At AChE [2], the IC50 was 40.1 µM and the “concentration from which AChE activity was inhibited, cerebral cortex” value was no less than 10 µM. In addition, in the data set on cortical astrocytes, the “cell viability” value is given as “did not change de cell viability”.

In the case of `Cc1ccc(C2SCCC(=O)N2CCN2CCCC2)cc1` (centres unmarked) [6k, 3-(2-(pyrrolidin-1-yl)ethyl)-2-(p-tolyl)-1,3-thiazinan-4-one], at AChE [1], the IC50 was 4.46 µM and the “concentration from which AChE activity was inhibited, hippocampus” value was no less than 1 µM. Also, at AChE [2], the IC50 is 6.83 µM and the “concentration from which AChE activity was inhibited, cerebral cortex” value was no less than 5 µM. In addition, the “cell viability” value with cortical astrocytes is “did not change de cell viability”.

On to `COc1cccc(C2SCCC(=O)N2CCN2CCCC2)c1` (centres unmarked) [6m, 2-(3-methoxyphenyl)-3-(2-(pyrrolidin-1-yl)ethyl)-1,3-thiazinan-4-one], for which the IC50 on AChE [1] was 90.3 µM; on AChE [2], 24 µM. Besides, the “concentration from which AChE activity was inhibited, cerebral cortex” value at AChE [2] is no less than 25 µM.

As for `COc1ccc(C2SCCC(=O)N2CCN2CCCC2)cc1` (centres unmarked) [6n, 2-(4-methoxyphenyl)-3-(2-(pyrrolidin-1-yl)ethyl)-1,3-thiazinan-4-one], on AChE [1], the IC50 was 17 µM. On AChE [2], the IC50 was 22.2 µM and the “concentration from which AChE activity was inhibited, cerebral cortex” value is no less than 5 µM. Further, the “cell viability” value in the data set with cortical astrocytes is reported as “did not change de cell viability”.

`O=C1CCSC(c2cccc(O)c2)N1CCN1CCCC1` (centres unmarked) [6o, 2-(3-hydroxyphenyl)-3-(2-(pyrrolidin-1-yl)ethyl)-1,3-thiazinan-4-one]: the IC50 at AChE [1] was 69.6 µM; on AChE [2], 25.7 µM. The “concentration from which AChE activity was inhibited, cerebral cortex” value at AChE [2] is no less than 25 µM.

Regarding `COc1cccc(C2SCCC(=O)N2CCN2CCCC2)c1OC` (centres unmarked) [6p, 2-(2,3-dimethoxyphenyl)-3-(2-(pyrrolidin-1-yl)ethyl)-1,3-thiazinan-4-one], at AChE [1] (disubstituted aryl, tissue not stated in the sentence (follows hippocampus results)), the “AChE inhibition activity (qualitative)” value is “decrease in activity”.
